Reference: article PMC11096368, “Transcriptomic signature, bioactivity and safety of a non-hepatotoxic analgesic generating AM404 in the midbrain PAG region” (Scientific Reports, 2024)

Tests used:
healthy volunteers = test: Phase 1 trial safety and tolerability; type: in vivo, human; settings: for Clinically significant abnormality (N): Adverse events / Clinically significant abnormality (N): Clinical chemistry / Clinically significant abnormality (N): ECG / Clinically significant abnormality (N): Physical exam / Clinically significant abnormality (N): Urinalysis / Clinically significant abnormality (N): Vital signs / Clinically significant abnormality (N): pharHematology: n = 6
Experimental: A randomized, double-blind, placebo-controlled Phase 1 trial (ClinicalTrials.gov identifier: NCT05484414) (02/08/2022) was conducted to assess the safety, tolerability, food effect, pharmacokinetics (PK), and pharmacodynamics (PD) of single and multiple ascending doses of SRP-001 (Quotient Sciences, Miami FL USA; Fig. 3h - k and Methods). The trial was conducted in accordance with the International Council for Harmonisation of Technical Requirements for Pharmaceuticals for Human Use (ICH), Guideline for GCP: Consolidated Guidance (E6), attained Institutional Review Board approval, and all applicable regulatory requirements for Phase 1, First in Human clinical trials. Safety measurements and plasma samples to determine PK parameters were collected throughout the study for all subjects and reviewed by the Safety Review Committee. PK stopping criteria were established to assure that systemic exposure to SRP-001 was less than or equal to the systemic exposure achieved at the NOAEL doses in the 28-day repeat-dose toxicology studies in the rat and dog. The trial’s Safety Advisory Committee has approved the publication of the Phase 1 results.
SRP-001 was administered as an oral nanosuspension to 56 healthy volunteers across five Single Ascending Dose (SAD) and two Multiple Ascending Dose (MAD) cohorts, with 42 subjects receiving SRP-001 and 14 receiving a placebo.
A two-part randomized, double-blind, placebo-controlled Phase 1 trial was conducted to assess the safety, tolerability, PK and PD of SRP-001 ascending doses (Quotient Sciences, Miami, FL, USA). The study was conducted in accordance with the International Council for Harmonisation of Technical Requirements for Pharmaceuticals for Human Use (ICH), Guideline for GCP: Consolidated Guidance (E6), and applicable regulatory requirements(s) including clinical research guidelines established by the Basic Principles defined in the U.S. 21 CFR Parts 50, 56, and 312 and the principles enunciated in the Declaration of Helsinki (revised version Fortaleza 2013). The clinical protocol and informed consent form were reviewed and approved by an Institutional Review Board (IRB; Advarra IRB, 6100 Merriweather Drive, Suite 600, Columbia, MD 21,044; Quotient Protocol No. SRP-101 and Quotient Sciences Study No. QSC205130; Quotient Sciences Miami, 3898 NW 7th Street, Miami, FL 33,126.). The study comprises a SAD (Part 1) assessment that includes a food effect assessment that contributes data to inform a subsequent MAD (Part 2) dose-ranging study. Safety measurements were collected throughout the study for all subjects. Blood samples were collected to determine the PK parameters of SRP-001 (ClinicalTrials.gov identifier: NCT05484414) (02/08/2022).
NHVs also underwent continuous ECG Holter monitoring from at least 1 h prior to dosing until 24 h post-dose, and resulting measurements were monitored consistently. All ECGs were collected electronically using a Mortara H12 + Holter monitor. Specific procedures for ECG Holter recording and extractions were provided to the Investigator by the Central ECG Laboratory, Banook Group. On Day 1, continuous Holter recording commenced at least 1 h prior to dosing until 24 h post-dose. Subjects were required to rest in the supine position with no external stimuli (e.g. music or television) for 15 min prior to the nominal time point where an ECG extraction was scheduled. This extraction was taken by the third-party Holter provider at the planned time, and therefore, no other procedures were performed within the resting period. […] Subjects were allowed to move more freely outside of the primary ECG rest periods. Comfort breaks for hygienic purposes were allowed each morning well in advance of the required supine/ECG extraction points. […]

beagle dogs = test: Two-day oral dose toxicity and pharmacokinetic study (non-GLP); type: in vivo
Experimental: SRP-001 was supplied by Olon Ricerca Bioscience as an off-white powder and then prepared as dosing suspensions for oral administration via gavage (Calvert Labs/Altasciences, Scott Township, PA USA). Six experimentally non-naïve male Beagle dogs (3/dose), at least 7 months old and weighing 7.2 to 10.2 kg prior to treatment initiation, were administered 100 or 900 mg/kg/d SRP-001. Animals were dosed three times daily (3–5 h between doses) for 2 d. Mortality/morbidity was performed twice daily. On the day of dosing, animals were observed prior to each dose administration and approximately 1–3 h after each dose. Animals were also observed once on day 3. Body weights were recorded for all animals prior to the first dose administration on days 1 and 3, and food consumption was recorded daily. Blood for bioanalytical evaluation was collected at selected timepoints on day 1. Following the completion of the study, surviving animals were not euthanized and were returned to the Calvert colony. […]
Following a single administration of 900 mg SRP-001 oral suspension in the fed state, plasma concentrations of SRP-001 were observed from the first sampling time-point of 1 h post-dose for all subjects. […] In a two-day oral dose toxicity and pharmacokinetic (PK) study of […] in Beagle dogs, peak plasma concentrations of SRP-001 were detected within a 30-min to 1-h window post-administration. […]

[1] = Cohort 1 (Regimen A), 300 mg SRP-001, Fasted
[2] = Cohort 2 (Regimen B), 600 mg SRP-001, Fasted
[3] = Cohort 3 (Regimen C), 900 mg SRP-001, Fasted
[4] = Cohort 4 (Regimen E), 2000 mg SRP-001, Fasted

CCN(CC)C(=O)c1ccccc1S(=O)(=O)NCC(=O)Nc1ccc(O)cc1 [SRP-001, N,N-diethyl-2-[[2-(4-hydroxyanilino)-2-oxo-ethyl]sulfamoyl]benzamide]
Clinically significant abnormality (N): Adverse events (healthy volunteers; [1]): 0
Clinically significant abnormality (N): Clinical chemistry (healthy volunteers; [1]): 0
Clinically significant abnormality (N): ECG (healthy volunteers; [1]): 0
Clinically significant abnormality (N): Physical exam (healthy volunteers; [1]): 0
Clinically significant abnormality (N): Urinalysis (healthy volunteers; [1]): 0
Clinically significant abnormality (N): Vital signs (healthy volunteers; [1]): 0
Clinically significant abnormality (N): pharHematology (healthy volunteers; [1]): 0
Clinically significant abnormality (N): Adverse events (healthy volunteers; [2]): 0
Clinically significant abnormality (N): Clinical chemistry (healthy volunteers; [2]): 0
Clinically significant abnormality (N): ECG (healthy volunteers; [2]): 0
Clinically significant abnormality (N): Physical exam (healthy volunteers; [2]): 0
Clinically significant abnormality (N): Urinalysis (healthy volunteers; [2]): 0
Clinically significant abnormality (N): Vital signs (healthy volunteers; [2]): 0
Clinically significant abnormality (N): pharHematology (healthy volunteers; [2]): 0
Clinically significant abnormality (N): Adverse events (healthy volunteers; [3]): 0
Clinically significant abnormality (N): Clinical chemistry (healthy volunteers; [3]): 0
Clinically significant abnormality (N): ECG (healthy volunteers; [3]): 0
Clinically significant abnormality (N): Physical exam (healthy volunteers; [3]): 0
Clinically significant abnormality (N): Urinalysis (healthy volunteers; [3]): 0
Clinically significant abnormality (N): Vital signs (healthy volunteers; [3]): 0
Clinically significant abnormality (N): pharHematology (healthy volunteers; [3]): 0
Clinically significant abnormality (N): Adverse events (healthy volunteers; [4]): 0
Clinically significant abnormality (N): Clinical chemistry (healthy volunteers; [4]): 0
Clinically significant abnormality (N): ECG (healthy volunteers; [4]): 0
Clinically significant abnormality (N): Physical exam (healthy volunteers; [4]): 0
Clinically significant abnormality (N): Urinalysis (healthy volunteers; [4]): 0
Clinically significant abnormality (N): Vital signs (healthy volunteers; [4]): 0
Clinically significant abnormality (N): pharHematology (healthy volunteers; [4]): 0
Emesis (healthy volunteers; Phase 1 MAD cohort): no emesis
Safety assessments (vital signs, physical examinations, continuous ECG, laboratory tests) (healthy volunteers; SAD and MAD cohorts): revealed no abnormalities
Serious adverse events (SAEs) (healthy volunteers; five SAD and two MAD cohorts, 42 subjects receiving SRP-001): no serious adverse events (SAEs) reported
Tolerability (healthy volunteers; oral nanosuspension, SAD and MAD cohorts): well tolerated
Dose tolerated (beagle dogs; 3 times daily for 2 days): 900 mg/kg/day
Time of peak plasma concentrations post-administration (beagle dogs; dog, in vivo): 30-min to 1-h
